Reference: ChEMBL document CHEMBL1909046, “DrugMatrix in vitro pharmacology data”

Tests used:
[1] = biological target: 5-hydroxytryptamine receptor 4 (Cavia porcellus, UniProt O70528); assay type: cell membranes, Dunkin-Hartley, Striatum, Membrane; also: in other assays of this panel Not Active means under 50% inhibition at 10 µM
[2] = biological target: T1, Alpha-1D adrenergic receptor (Homo sapiens, UniProt P25100); assay type: cell membranes, HEK293, Membrane; conditions: for Ki: read-out: Ki; as to all read-outs here: in other assays of this panel Not Active means under 50% inhibition at 10 µM
T1 sequence (P25100 whole entry): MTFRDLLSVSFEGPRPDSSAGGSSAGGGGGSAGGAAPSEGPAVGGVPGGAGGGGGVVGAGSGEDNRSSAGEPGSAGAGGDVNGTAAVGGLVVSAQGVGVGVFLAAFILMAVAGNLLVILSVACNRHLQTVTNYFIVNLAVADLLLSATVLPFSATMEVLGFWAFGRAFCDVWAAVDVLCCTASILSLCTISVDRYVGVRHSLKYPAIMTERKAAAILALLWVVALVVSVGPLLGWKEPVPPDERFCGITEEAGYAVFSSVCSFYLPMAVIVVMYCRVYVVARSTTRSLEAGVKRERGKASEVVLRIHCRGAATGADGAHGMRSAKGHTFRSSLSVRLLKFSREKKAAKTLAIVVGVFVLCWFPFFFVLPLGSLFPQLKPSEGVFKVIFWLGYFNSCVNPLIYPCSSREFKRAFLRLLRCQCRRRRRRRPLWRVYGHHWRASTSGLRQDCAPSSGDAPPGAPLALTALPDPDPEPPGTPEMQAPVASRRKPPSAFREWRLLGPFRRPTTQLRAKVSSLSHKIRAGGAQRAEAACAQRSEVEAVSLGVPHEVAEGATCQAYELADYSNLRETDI

[3] = biological target: T2, Vasoactive intestinal polypeptide receptor 1 (Homo sapiens, UniProt P32241); assay type: cell membranes, Membrane; conditions: ht-29; also: in other assays of this panel Not Active means under 50% inhibition at 10 µM
T2 sequence (P32241 whole entry): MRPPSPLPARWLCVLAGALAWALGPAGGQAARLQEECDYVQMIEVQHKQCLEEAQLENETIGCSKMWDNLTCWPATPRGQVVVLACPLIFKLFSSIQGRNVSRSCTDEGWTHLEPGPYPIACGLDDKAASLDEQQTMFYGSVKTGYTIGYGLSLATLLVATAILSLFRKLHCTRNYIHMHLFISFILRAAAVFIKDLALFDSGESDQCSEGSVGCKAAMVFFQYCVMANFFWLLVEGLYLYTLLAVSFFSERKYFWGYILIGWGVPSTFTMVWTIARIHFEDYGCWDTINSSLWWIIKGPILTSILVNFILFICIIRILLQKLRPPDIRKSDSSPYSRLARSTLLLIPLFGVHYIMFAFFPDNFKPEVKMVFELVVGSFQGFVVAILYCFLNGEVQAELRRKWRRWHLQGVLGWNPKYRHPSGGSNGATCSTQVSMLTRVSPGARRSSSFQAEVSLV

D(4) dopamine receptor = biological target: T3, D(4) dopamine receptor (Homo sapiens, UniProt P21917); test: DRUGMATRIX: Dopamine D4.2 radioligand binding (ligand: [3H] Spiperone); assay type: cell membranes, CHO-K1, Membrane; conditions: Not Active = under 50% inhibition at 10 µM
T3 sequence (P21917 whole entry): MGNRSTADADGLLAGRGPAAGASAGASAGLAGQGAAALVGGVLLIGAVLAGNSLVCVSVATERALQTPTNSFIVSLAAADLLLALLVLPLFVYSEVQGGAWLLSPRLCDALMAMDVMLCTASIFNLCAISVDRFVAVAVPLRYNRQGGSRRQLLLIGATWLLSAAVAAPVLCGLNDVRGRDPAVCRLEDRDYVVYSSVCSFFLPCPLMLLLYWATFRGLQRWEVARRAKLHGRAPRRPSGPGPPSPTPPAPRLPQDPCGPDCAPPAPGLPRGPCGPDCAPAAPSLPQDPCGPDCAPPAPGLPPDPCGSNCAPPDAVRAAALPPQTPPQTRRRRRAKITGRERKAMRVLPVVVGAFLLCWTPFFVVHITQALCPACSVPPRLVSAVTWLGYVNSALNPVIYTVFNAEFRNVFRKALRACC

[4] = DRUGMATRIX: GABAA, Flunitrazepam, Central radioligand binding (ligand: [3H] Flunitrazepam); assay type: cell membranes, Rattus norvegicus, Wistar, Brain, Membrane; conditions: Not Active = under 50% inhibition at 10 µM
[5] = biological target: Prostaglandin G/H synthase 1 (Homo sapiens, UniProt P23219); test: biochemical; assay type: tissue-based, Platelet; conditions: platelet;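 also: inhibition of COX-1 enzyme activity, with arachidonic acid supplied as substrate; in other assays of this panel Not Active means under 50% inhibition at 10 µM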
Chain of Prostaglandin G/H synthase 1 (P23219 whole entry): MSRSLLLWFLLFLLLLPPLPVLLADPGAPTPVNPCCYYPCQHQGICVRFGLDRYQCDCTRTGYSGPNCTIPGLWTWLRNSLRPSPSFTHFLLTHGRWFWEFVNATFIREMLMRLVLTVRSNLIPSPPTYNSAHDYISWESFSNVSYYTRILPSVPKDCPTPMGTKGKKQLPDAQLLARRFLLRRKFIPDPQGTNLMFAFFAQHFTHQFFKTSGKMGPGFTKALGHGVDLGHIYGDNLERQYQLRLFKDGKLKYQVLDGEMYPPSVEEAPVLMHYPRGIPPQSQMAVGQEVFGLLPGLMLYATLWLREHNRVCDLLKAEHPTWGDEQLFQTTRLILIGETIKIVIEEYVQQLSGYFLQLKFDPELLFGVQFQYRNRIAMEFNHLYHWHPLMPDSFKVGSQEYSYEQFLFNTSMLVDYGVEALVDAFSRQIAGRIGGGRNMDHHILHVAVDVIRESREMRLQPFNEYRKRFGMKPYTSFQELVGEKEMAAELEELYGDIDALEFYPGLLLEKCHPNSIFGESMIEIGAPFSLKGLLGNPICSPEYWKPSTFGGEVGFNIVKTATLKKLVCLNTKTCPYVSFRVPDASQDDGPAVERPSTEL

[6] = biological target: T4, C-X-C chemokine receptor type 1 (Homo sapiens, UniProt P25024); also: in other assays of this panel Not Active means under 50% inhibition at 10 µM
T4 sequence (P25024 whole entry): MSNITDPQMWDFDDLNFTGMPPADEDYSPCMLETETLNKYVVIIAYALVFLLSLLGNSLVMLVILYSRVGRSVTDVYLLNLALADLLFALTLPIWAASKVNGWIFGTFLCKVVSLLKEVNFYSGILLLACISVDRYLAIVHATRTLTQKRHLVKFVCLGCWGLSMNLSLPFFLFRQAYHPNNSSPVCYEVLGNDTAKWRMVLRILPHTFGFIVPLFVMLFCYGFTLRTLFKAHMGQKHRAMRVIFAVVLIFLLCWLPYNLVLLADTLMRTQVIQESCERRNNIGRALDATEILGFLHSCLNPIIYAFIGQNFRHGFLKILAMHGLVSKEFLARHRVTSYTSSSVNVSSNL

B2 bradykinin receptor = biological target: T5, B2 bradykinin receptor (Homo sapiens, UniProt P30411); assay type: cell membranes, Membrane; conditions: chem-1; also: in other assays of this panel Not Active means under 50% inhibition at 10 µM
T5 sequence (P30411 whole entry): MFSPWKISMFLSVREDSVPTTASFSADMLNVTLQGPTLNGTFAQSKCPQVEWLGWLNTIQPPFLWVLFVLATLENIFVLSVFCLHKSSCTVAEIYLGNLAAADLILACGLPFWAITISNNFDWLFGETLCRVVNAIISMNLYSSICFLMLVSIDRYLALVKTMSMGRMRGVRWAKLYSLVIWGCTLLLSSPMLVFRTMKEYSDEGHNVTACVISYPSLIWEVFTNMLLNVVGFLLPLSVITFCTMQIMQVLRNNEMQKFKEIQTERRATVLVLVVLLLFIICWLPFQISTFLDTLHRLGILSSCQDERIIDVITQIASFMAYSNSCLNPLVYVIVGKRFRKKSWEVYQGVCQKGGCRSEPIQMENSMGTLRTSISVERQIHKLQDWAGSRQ

Chain of 5-hydroxytryptamine receptor 4 (O70528 whole entry): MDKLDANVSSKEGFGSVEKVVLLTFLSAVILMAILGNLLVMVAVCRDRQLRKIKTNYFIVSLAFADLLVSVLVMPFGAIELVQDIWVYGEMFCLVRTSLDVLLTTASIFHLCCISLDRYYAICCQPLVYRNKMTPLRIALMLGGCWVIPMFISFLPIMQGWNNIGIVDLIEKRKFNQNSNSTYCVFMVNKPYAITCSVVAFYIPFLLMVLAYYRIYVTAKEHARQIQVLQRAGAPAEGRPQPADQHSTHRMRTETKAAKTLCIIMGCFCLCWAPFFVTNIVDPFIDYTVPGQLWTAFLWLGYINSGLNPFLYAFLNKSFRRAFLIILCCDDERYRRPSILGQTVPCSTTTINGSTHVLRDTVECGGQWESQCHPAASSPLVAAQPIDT

Row | SMILES | IC50 [1] | IC50 ([2]; hek293) | IC50 [3] | IC50 (D(4) dopamine receptor; cho-k1) | IC50 [4] | Ki [4] | IC50 [5] | IC50 [6] | IC50 (B2 bradykinin receptor) | IC50 ([2]; read-out: IC50) | Ki [2] | IC50 (D(4) dopamine receptor; read-out: IC50) | Ki (D(4) dopamine receptor; read-out: Ki)
1 | COc1cc(N)nc2[nH]c(-c3ccc(F)cc3)c(-c3ccncc3)c12 | Not Active | Not Active | Not Active | Not Active | Not Active | Not Active | Not Active | Not Active | Not Active |  |  |  | 
2 | CNS(=O)(=O)Cc1ccc2[nH]cc(CCN(C)C)c2c1 | Not Active | Not Active | Not Active | Not Active | Not Active | Not Active | Not Active | Not Active | Not Active |  |  |  | 
3 | CCCc1nn(C)c2c(=O)[nH]c(-c3cc(S(=O)(=O)N4CCN(C)CC4)ccc3OCC)nc12 | Not Active | Not Active | Not Active | Not Active | Not Active | Not Active | Not Active | Not Active | Not Active |  |  |  | 
4 | COc1ccc(/C=C/C(=O)Nc2ccccc2C(=O)O)cc1OC | Not Active | Not Active | Not Active | Not Active | Not Active | Not Active | Not Active | Not Active | Not Active |  |  |  | 
5 | CCOC(N)=O | Not Active | Not Active | Not Active | Not Active | Not Active | Not Active | Not Active | Not Active | Not Active |  |  |  | 
6 | CC(=O)Nc1nnc(S(N)(=O)=O)s1 [ACETAZOLAMIDE] | Not Active | Not Active | Not Active | Not Active |  |  | Not Active | Not Active | Not Active |  |  |  | 
7 | O=c1[nH]c2ccccc2n1CCCN1CCC(n2c(=O)[nH]c3cc(Cl)ccc32)CC1 [DOMPERIDONE] | Not Active |  | Not Active | Not Active |  |  | Not Active | Not Active | Not Active | 1060 nM | 524 nM |  | 
8 | CC1=C(CC(=O)O)c2cc(F)ccc2/C1=C\c1ccc(S(C)(=O)=O)cc1 [EXISULIND] | Not Active | Not Active | Not Active | Not Active | Not Active | Not Active | Not Active | Not Active | Not Active |  |  |  | 
9 | CC(C)OC(=O)C(C)(C)Oc1ccc(C(=O)c2ccc(Cl)cc2)cc1 [FENOFIBRATE] | Not Active | Not Active | Not Active | Not Active |  |  | Not Active | Not Active | Not Active |  |  |  | 
10 | OCCN1CCN(CCCN2c3ccccc3Sc3ccc(C(F)(F)F)cc32)CC1 [FLUPHENAZINE] | Not Active |  | Not Active |  |  |  | Not Active | Not Active | Not Active | 33 nM | 16 nM | 5880 nM | 2060 nM
